Reference: ChEMBL document CHEMBL5226308, “Amide-Amine Replacement in Indole-2-carboxamides Yields Potent Mycobactericidal Agents with Improved Water Solubility” (ACS Med Chem Lett, 2021)
Converted amounts (≈) assume the structure as drawn. The source made the active and inactive calls. The rule behind the calls is not given here.

Key:
[1] = tested on: Mycobacterium tuberculosis variant bovis; experiment: Antimycobacterial activity against Mycobacterium bovis BCG ATCC 35734 assessed as inhibition of bacterial growth incubated for 5 days in 7H9 standard media by broth dilution method; assay type: functional; conditions: BCG ATCC 35734, 120 h, time 5 day
[2] = tested on: Mycobacterium tuberculosis variant bovis; experiment: Myco-bactericidal activity against Mycobacterium bovis BCG ATCC 35734 assessed as inhibition of bacterial colony formation incubated for 5 days by agar plate method; assay type: functional; conditions: BCG ATCC 35734, 120 h, time 5 day, read-out: MBC99.9
[3] = tested on: Mycobacterium tuberculosis variant bovis; experiment: Disruption of proton motive force in Mycobacterium bovis BCG ATCC 35734 assessed as loss in mitochondrial membrane potential by measuring decline in fluorescence ratio at 4XMIC90 measured after >=12 hrs by DiOC2 based fluorescence analysis; assay type: functional, organism-based
[4] = tested on: Mycobacterium tuberculosis variant bovis; experiment: Antimycobacterial activity against Mycobacterium bovis BCG ATCC 35734 assessed as inhibition of bacterial growth incubated for 5 days in 7H9 medium with addition of 10% FBS by broth dilution method; assay type: functional; conditions: BCG ATCC 35734, 120 h, time 5 day
[5] = tested on: Mycobacterium tuberculosis variant bovis; experiment: Antimycobacterial activity against Mycobacterium bovis BCG ATCC 35734 assessed as inhibition of bacterial growth incubated for 5 days in 7H9 medium with omission of glycerol by broth dilution method; assay type: functional; conditions: BCG ATCC 35734, 120 h, time 5 day

Row | Structure (SMILES) | MIC90 [1] | other results
1 | O=C(NC1CCCCCCC1)c1cc2ccccc2[nH]1 | 0.52 µM (≈ 0.141 µg/mL) | –
2 | O=C(NC1CCCCCC1)c1cc2ccccc2[se]1 | 2.7 µM (≈ 0.865 µg/mL) | –
3 | O=C(NC1CCCCCCC1)c1cc2ccc(OCc3ccccc3)cc2[nH]1 | 0.07 µM (≈ 0.0264 µg/mL) | –
4 | O=C(NC12CC3CC(CC(C3)C1)C2)c1cc2ccccc2[se]1 | 1 µM (≈ 0.358 µg/mL) | –
5 | O=C(NC1CCCCCCC1)c1cc2ccc(C(F)(F)F)cc2[se]1 | 1.8 µM (≈ 0.724 µg/mL) | –
6 | O=C(NC1CCCCCCC1)c1cc2ccc(Cl)cc2[nH]1 | 0.11 µM (≈ 0.0335 µg/mL) | –
7 | O=C(NC1CCCCCC1)c1cc2ccccc2s1 | 3 µM (≈ 0.82 µg/mL) | –
8 | O=C(NC1CCCCCCC1)c1cc2cc(O)ccc2[nH]1 | 48 µM (≈ 13.7 µg/mL) | –
9 | Fc1ccc2cc(CNC3CCCCCCC3)[nH]c2c1 | 0.43 µM (≈ 0.118 µg/mL) | –
10 | COc1ccc2[nH]c(C(=O)NC3CCCCCCC3)cc2c1 | 0.65 µM (≈ 0.195 µg/mL) | –
11 | c1ccc2sc(CNC3CCCCCC3)cc2c1 | 5 µM (≈ 1.3 µg/mL) | –
12 | Clc1ccc2[nH]c(CNC3CCCCCCC3)cc2c1 | 0.22 µM (≈ 0.064 µg/mL) | –
13 | NNC(=O)c1ccncc1 [ISONIAZID] | – | MBC [2]: 10 µM (≈ 1.37 µg/mL)
14 | O=C(NC1CCCCCC1)c1cc2ccc(C(F)(F)F)cc2[nH]1 | 0.21 µM (≈ 0.0681 µg/mL) | –
15 | O=C(NC1CCCCCCC1)c1cc2ccc(Br)cc2[se]1 | 0.78 µM (≈ 0.322 µg/mL) | –
16 | O=C(NC1CCCCCCC1)c1cc2cc(OCc3ccccc3)ccc2[nH]1 | 0.17 µM (≈ 0.064 µg/mL) | –
17 | O=C(NC1CCCCCCC1)c1cc2ccccc2s1 | 0.5 µM (≈ 0.144 µg/mL) | Activity [3]: Active
18 | c1ccc2sc(CNC34CC5CC(CC(C5)C3)C4)cc2c1 | 3.6 µM (≈ 1.07 µg/mL) | –
19 | O=C(NC1CCCCCCC1)c1cc2ccccc2[se]1 | 0.7 µM (≈ 0.234 µg/mL) | Activity [3]: Active
20 | c1ccc2[se]c(CNC3CCCCC3)cc2c1 | > 35 µM | –

Row | Structure (SMILES) | MIC90 [1] | other results
21 | Fc1ccc2[nH]c(CNC3CCCCCCC3)cc2c1 | 0.33 µM (≈ 0.0905 µg/mL) | –
22 | O=C(NC1CCCCC1)c1cc2ccccc2[se]1 | > 50 µM | –
23 | O=C(NC1CCCCCCC1)c1cc2ccc(O)cc2[nH]1 | 11 µM (≈ 3.15 µg/mL) | –
24 | c1ccc2sc(CNC3CCCCCCC3)cc2c1 | 3.4 µM (≈ 0.93 µg/mL) | Activity [3]: Active
25 | O=C(NC12CC3CC(CC(C3)C1)C2)c1cc2ccccc2s1 | 0.9 µM (≈ 0.28 µg/mL) | –
26 | O=[N+]([O-])c1ccc2[nH]c(CNC3CCCCCCC3)cc2c1 | 0.69 µM (≈ 0.208 µg/mL) | –
27 | FC(F)(F)c1ccc2cc(CNC3CCCCCCC3)[se]c2c1 | 2 µM (≈ 0.777 µg/mL) | –
28 | O=C(NC1CCCCCCC1)c1cc2cc([N+](=O)[O-])ccc2[nH]1 | 0.41 µM (≈ 0.129 µg/mL) | –
29 | O=C(NC1CCCCC1)c1cc2ccccc2s1 | > 50 µM | –
30 | FC(F)(F)c1ccc2cc(CNC3CCCCCCC3)sc2c1 | 0.78 µM (≈ 0.266 µg/mL) | –
31 | Brc1ccc2[nH]c(CNC3CCCCCCC3)cc2c1 | 0.74 µM (≈ 0.248 µg/mL) | –
32 | O=C(NC1CCCCCCC1)c1cc2cc(F)ccc2[nH]1 | 0.61 µM (≈ 0.176 µg/mL) | –
33 | Brc1ccc2cc(CNC3CCCCCCC3)sc2c1 | 2.2 µM (≈ 0.775 µg/mL) | –
34 | COc1ccc2cc(CNC3CCCCCCC3)[nH]c2c1 | 1.2 µM (≈ 0.344 µg/mL) | –
35 | O=C(NC1CCCCCCC1)c1cc2cc(Br)ccc2[nH]1 | 1.1 µM (≈ 0.384 µg/mL) | –
36 | O=C(NC1CCCCCCC1)c1cc2ccc(C(F)(F)F)cc2s1 | 0.4 µM (≈ 0.142 µg/mL) | –
37 | c1ccc2[se]c(CNC3CCCCCC3)cc2c1 | 5 µM (≈ 1.53 µg/mL) | –
38 | O=C(NC1CCCCCCC1)c1cc2ccc(F)cc2[nH]1 | 0.18 µM (≈ 0.0519 µg/mL) | –
39 | O=C(NC1CCCCCCC1)c1cc2cc(Cl)ccc2[nH]1 | 0.8 µM (≈ 0.244 µg/mL) | –
40 | O=C(NC1CCCCCCC1)c1cc2ccc(Br)cc2[nH]1 | 0.06 µM (≈ 0.021 µg/mL) | –

Row | Structure (SMILES) | MIC90 [1] | other results
41 | COc1ccc2cc(C(=O)NC3CCCCCCC3)[nH]c2c1 | 1.1 µM (≈ 0.33 µg/mL) | –
42 | c1ccc2[se]c(CNC3CCCCCCC3)cc2c1 | 2.1 µM (≈ 0.673 µg/mL) | Activity [3]: Active
43 | FC(F)(F)c1ccc2cc(CNC3CCCCCCC3)[nH]c2c1 | 0.08 µM (≈ 0.026 µg/mL) | MIC50 [1]: 0.04 µM (≈ 0.013 µg/mL); MIC50 [4]: 0.07 µM (≈ 0.0227 µg/mL); MIC90 [4]: 0.16 µM (≈ 0.0519 µg/mL); Activity [3]: Active; MIC50 [5]: 0.04 µM (≈ 0.013 µg/mL); MBC [2]: 0.16 µM (≈ 0.0519 µg/mL)
44 | O=C(NC1CCCCC1)c1cc2ccc(C(F)(F)F)cc2[nH]1 | 1.6 µM (≈ 0.497 µg/mL) | –
45 | O=C(NC1CCCCCCC1)c1cc2ccc(Br)cc2s1 | 0.8 µM (≈ 0.293 µg/mL) | –
46 | c1ccc2[se]c(CNC34CC5CC(CC(C5)C3)C4)cc2c1 | 2.7 µM (≈ 0.93 µg/mL) | –
47 | Cc1cc(C)c2cc(CNC3CCCCCCC3)[nH]c2c1 | 0.25 µM (≈ 0.0711 µg/mL) | –
48 | Clc1ccc2cc(CNC3CCCCCCC3)[nH]c2c1 | 0.1 µM (≈ 0.0291 µg/mL) | –
49 | Brc1ccc2cc(CNC3CCCCCCC3)[nH]c2c1 | 0.16 µM (≈ 0.0536 µg/mL) | –
50 | c1ccc2sc(CNC3CCCCC3)cc2c1 | > 45 µM | –
51 | Brc1ccc2cc(CNC3CCCCCCC3)[se]c2c1 | 0.54 µM (≈ 0.216 µg/mL) | –
52 | c1ccc(COc2ccc3[nH]c(CNC4CCCCCCC4)cc3c2)cc1 | 0.31 µM (≈ 0.112 µg/mL) | –
53 | Cc1cc(C)c2cc(C(=O)NC3CCCCCCC3)[nH]c2c1 | 0.04 µM (≈ 0.0119 µg/mL) | –
54 | COc1ccc2[nH]c(CNC3CCCCCCC3)cc2c1 | 1.5 µM (≈ 0.43 µg/mL) | –
55 | c1ccc2[nH]c(CNC3CCCCCCC3)cc2c1 | 0.75 µM (≈ 0.192 µg/mL) | –
56 | FC(F)(F)c1ccc2cc(CNC3CCCCC3)[nH]c2c1 | 1.1 µM (≈ 0.326 µg/mL) | –
57 | NC(=O)c1cc2ccccc2s1 | > 50 µM | –
58 | O=C(NC1CCCCCCC1)c1cc2ccc(C(F)(F)F)cc2[nH]1 | 0.04 µM (≈ 0.0135 µg/mL) | MIC50 [1]: 0.02 µM (≈ 0.00677 µg/mL); MIC50 [4]: 0.02 µM (≈ 0.00677 µg/mL); MIC90 [4]: 0.08 µM (≈ 0.0271 µg/mL); Activity [3]: Active; MIC50 [5]: 0.01 µM (≈ 0.00338 µg/mL); MBC [2]: 0.08 µM (≈ 0.0271 µg/mL)
